Assay [1] concerns the target GSPT1 (Homo sapiens, UniProt P15170+Q96SW2). The class given is cell-based. As to the method: GSPT1_HiBIT_HEK293 cells were culture in DMEM medium with 10% FBS under standard tissue culture conditions. […] GSPT1 level was determined in along with the Nano-Glo HiBiT Lytic Detection system [Promega N3050] with final concentration of 1×. The luminescence was normalized to that of DMSO-treated samples. DC50 values were obtained using three-parameter non-linear regressions using Prism (GraphPad).

For assay [2], the system named is NCI-H1155 cells. The experiment in a line: NSCLC cell viability, CellTiter-Glo, NCI-H1155 cells. It counts as cell-based. As to conditions: Homo sapiens; NCI-H1155 cells, CellTiter-Glo, 72 hours of treatment; read-out: Cell viability classification (NCI-H1155). (In general: Cellular ATP, detected with luciferase, serves as a proxy for viable cell number.)
Where [3] appears, read: read-out: GSPT1 degradation classification; DC50, GSPT1_HiBIT_HEK293 cells, 16 hours, Nano-Glo HiBiT Lytic Detection.
Setting [4] is: DC50, GSPT1_HiBIT_HEK293 cells, 16 hours, Nano-Glo HiBiT Lytic Detection; read-out: GSPT1 degradation classification.

Like-named read-outs stand apart in the source and are kept apart here. Where only a bound is given, the exact number is not on record here.

GSPT1, sequence (P15170 whole entry): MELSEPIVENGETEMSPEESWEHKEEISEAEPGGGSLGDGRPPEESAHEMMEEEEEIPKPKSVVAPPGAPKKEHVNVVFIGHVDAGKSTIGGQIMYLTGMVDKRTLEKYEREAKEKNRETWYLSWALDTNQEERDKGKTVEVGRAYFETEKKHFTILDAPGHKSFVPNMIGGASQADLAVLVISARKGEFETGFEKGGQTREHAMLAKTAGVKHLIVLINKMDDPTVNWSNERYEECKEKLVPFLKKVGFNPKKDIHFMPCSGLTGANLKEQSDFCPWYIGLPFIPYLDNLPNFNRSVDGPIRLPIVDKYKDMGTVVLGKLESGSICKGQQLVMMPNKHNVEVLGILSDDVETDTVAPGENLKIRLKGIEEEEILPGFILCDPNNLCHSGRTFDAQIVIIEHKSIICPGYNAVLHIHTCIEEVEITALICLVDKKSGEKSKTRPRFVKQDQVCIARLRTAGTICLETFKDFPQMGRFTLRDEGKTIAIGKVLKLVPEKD
GSPT1, sequence (Q96SW2 whole entry): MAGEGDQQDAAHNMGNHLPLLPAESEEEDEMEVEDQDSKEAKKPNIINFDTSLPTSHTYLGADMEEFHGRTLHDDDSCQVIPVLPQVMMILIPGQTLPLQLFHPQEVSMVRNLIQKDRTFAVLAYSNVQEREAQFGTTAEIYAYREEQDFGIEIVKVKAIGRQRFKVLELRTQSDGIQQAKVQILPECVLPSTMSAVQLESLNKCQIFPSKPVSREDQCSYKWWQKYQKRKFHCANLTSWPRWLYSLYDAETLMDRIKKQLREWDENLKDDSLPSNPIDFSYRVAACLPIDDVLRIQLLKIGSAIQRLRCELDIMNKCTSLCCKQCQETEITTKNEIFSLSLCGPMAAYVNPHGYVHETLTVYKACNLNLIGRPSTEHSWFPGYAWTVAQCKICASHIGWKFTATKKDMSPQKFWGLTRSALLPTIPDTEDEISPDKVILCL
GSPT1, sequence (Q16531 whole entry partner): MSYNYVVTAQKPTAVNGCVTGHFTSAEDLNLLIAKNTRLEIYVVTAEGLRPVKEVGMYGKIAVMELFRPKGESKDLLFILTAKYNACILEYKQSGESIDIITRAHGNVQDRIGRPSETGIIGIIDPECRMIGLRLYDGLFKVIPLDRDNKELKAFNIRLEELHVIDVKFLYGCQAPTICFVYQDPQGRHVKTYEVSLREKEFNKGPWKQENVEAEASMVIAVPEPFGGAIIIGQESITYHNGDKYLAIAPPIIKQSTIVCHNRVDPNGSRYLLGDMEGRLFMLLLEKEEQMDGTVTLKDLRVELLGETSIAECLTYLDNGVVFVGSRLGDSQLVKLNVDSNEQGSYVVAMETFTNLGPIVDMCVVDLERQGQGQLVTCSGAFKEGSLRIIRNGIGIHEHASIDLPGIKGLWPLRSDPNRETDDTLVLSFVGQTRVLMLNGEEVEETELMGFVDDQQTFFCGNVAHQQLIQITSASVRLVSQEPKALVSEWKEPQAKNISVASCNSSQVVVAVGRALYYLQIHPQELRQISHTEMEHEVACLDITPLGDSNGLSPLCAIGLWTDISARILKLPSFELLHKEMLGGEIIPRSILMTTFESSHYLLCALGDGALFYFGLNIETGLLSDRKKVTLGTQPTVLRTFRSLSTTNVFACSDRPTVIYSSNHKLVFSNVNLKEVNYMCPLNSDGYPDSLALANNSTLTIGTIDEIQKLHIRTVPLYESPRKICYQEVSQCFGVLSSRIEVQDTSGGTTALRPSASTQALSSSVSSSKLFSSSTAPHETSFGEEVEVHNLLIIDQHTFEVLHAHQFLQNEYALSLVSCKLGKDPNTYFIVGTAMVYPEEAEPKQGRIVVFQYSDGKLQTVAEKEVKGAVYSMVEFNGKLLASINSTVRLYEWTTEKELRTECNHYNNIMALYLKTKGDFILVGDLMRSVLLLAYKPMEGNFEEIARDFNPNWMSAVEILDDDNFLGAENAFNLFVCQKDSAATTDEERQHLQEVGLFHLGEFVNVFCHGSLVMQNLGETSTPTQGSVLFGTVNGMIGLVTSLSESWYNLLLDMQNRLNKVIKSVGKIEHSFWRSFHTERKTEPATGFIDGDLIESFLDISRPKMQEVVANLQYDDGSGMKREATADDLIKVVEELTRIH

In the case of `O=C1CCC(N2Cc3cc(C(=O)N4Cc5cc(F)cc(F)c5C4)ccc3C2=O)C(=O)N1` (stereo not shown) [Example 103, 3-(5-(4,6-difluoroisoindoline-2-carbonyl)-1-oxoisoindolin-2-yl)piperidine-2,6-dione], the DC50 in assay [1] (setting [3]) is below 100 nM. The IC50 in assay [2] was below 10 nM.

For the compound `O=C1CCC(c2nc3ccc(C(=O)N4CCc5ccc(F)cc54)cc3o2)C(=O)N1` (stereo not shown) [Example 107, 3-(6-(6-fluoroindoline-1-carbonyl)benzo[d]oxazol-2-yl)piperidine-2,6-dione], the DC50 in assay [1] (setting [4]) is 300 to 1000 nM. In assay [2], the IC50 lay within 100 to 1000 nM.

Take `O=C1CCC(N2Cc3cc(C(=O)N4Cc5ccc(F)c(F)c5C4)ccc3C2=O)C(=O)N1` (stereo not shown) [Example 109, 3-(5-(4,5-difluoroisoindoline-2-carbonyl)-1-oxoisoindolin-2-yl)piperidine-2,6-dione]: the DC50 in assay [1] (setting [3]) was below 100 nM. Also, the IC50 in assay [2] lay within 10 to 100 nM.

On to `O=C1CCC(N2Cc3cc(C(=O)N4Cc5cccc(Cl)c5C4)ccc3C2=O)C(=O)N1` (stereo not shown) [Example 112, 3-(5-(4-chloroisoindoline-2-carbonyl)-1-oxoisoindolin-2-yl)piperidine-2,6-dione], for which the DC50 in assay [1] (setting [3]) is below 100 nM. Further, in assay [2], the IC50 is below 10 nM.

`Cc1cccc2c1CN(C(=O)c1ccc3c(c1)CN(C1CCC(=O)NC1=O)C3=O)C2` (stereo not shown) [Example 130, 3-(5-(4-methylisoindoline-2-carbonyl)-1-oxoisoindolin-2-yl)piperidine-2,6-dione]: in assay [1] (setting [3]), the DC50 was below 100 nM. Further, the IC50 in assay [2] lay within 10 to 100 nM.

For the compound `C[C@@H]1CN(C(=O)c2ccc3c(c2)CN(C2CCC(=O)NC2=O)C3=O)c2cc(F)ccc21` (stereo partly drawn) [Example 133, 3-(5-((S)-6-fluoro-3-methylindoline-1-carbonyl)-1-oxoisoindolin-2-yl)piperidine-2,6-dione], the DC50 in assay [1] (setting [3]) is below 100 nM. Moreover, the IC50 in assay [2] was below 10 nM.

For the compound `O=C1CCC(c2nc3ccc(C(=O)N4Cc5cccc(F)c5C4)cc3o2)C(=O)N1` (stereo not shown) [Example 137, 3-(6-(4-fluoroisoindoline-2-carbonyl)benzo[d]oxazol-2-yl)piperidine-2,6-dione], the DC50 in assay [1] (setting [4]) fell in the range of 300 to 1000 nM. The IC50 in assay [2] fell in the range of 100 to 1000 nM.

On to `O=C1CCC(N2Cc3cc(C(=O)N4CC5(CC(C(F)(F)F)C5)C4)ccc3C2=O)C(=O)N1` (stereo not shown) [Example 145, 3-(1-oxo-5-(6-(trifluoromethyl)-2-azaspiro[3.3]heptane-2-carbonyl)isoindolin-2-yl)piperidine-2,6-dione], for which the DC50 in assay [1] (setting [3]) was above 1000 nM. Also, in assay [2], the IC50 lay in the range of 10 to 100 nM.

Turning to `O=C1CCC(N2Cc3cc(C(=O)N4Cc5c(F)ccc(F)c5C4)ccc3C2=O)C(=O)N1` (stereo not shown) [Example 147, 3-(5-(4,7-difluoroisoindoline-2-carbonyl)-1-oxoisoindolin-2-yl)piperidine-2,6-dione], in assay [1] (setting [3]), the DC50 is below 100 nM. For the same compound, in assay [2], the IC50 was 10 to 100 nM.

With `O=C1CCC(c2nc3ccc(C(=O)N4Cc5cccc(Cl)c5C4)cc3o2)C(=O)N1` (stereo not shown) [Example 158, 3-(6-(4-chloroisoindoline-2-carbonyl)benzo[d]oxazol-2-yl)piperidine-2,6-dione], the DC50 in assay [1] (setting [4]) fell in the range of 100 to 300 nM. Moreover, in assay [2], the IC50 was 10 to 100 nM.

For `Cc1cccc2c1CN(C(=O)c1ccc3nc(C4CCC(=O)NC4=O)oc3c1)C2` (stereo not shown) [Example 161, 3-(6-(4-methylisoindoline-2-carbonyl)benzo[d]oxazol-2-yl)piperidine-2,6-dione], in assay [1] (setting [4]), the DC50 was in the range of 100 to 300 nM. Also, the IC50 in assay [2] fell in the range of 10 to 100 nM.

Take `O=C1CCC(N2Cc3cc(C(=O)N4CC5(CC(c6ccc(C(F)(F)F)cc6F)C5)C4)ccc3C2=O)C(=O)N1` (stereo not shown) [Example 246, 3-(5-(6-(2-fluoro-4-(trifluoromethyl)phenyl)-2-azaspiro[3.3]heptane-2-carbonyl)-1-oxoisoindolin-2-yl)piperidine-2,6-dione]: the IC50 in assay [2] fell in the range of 10 to 100 nM.

Consider `O=C1CCC(N2Cc3cc(C(=O)N4CCC5(C=C(c6ccc(F)cc6)C5)C4)ccc3C2=O)C(=O)N1` (stereo not shown) [Example 247, 3-(5-(2-(4-fluorophenyl)-6-azaspiro[3.4]oct-1-ene-6-carbonyl)-1-oxoisoindolin-2-yl)piperidine-2,6-dione], for which the IC50 in assay [2] lay within 10 to 100 nM.

Turning to `O=C1CCC(N2Cc3cc(C(=O)N4CCC5(CC(c6ccc(F)cc6)C5)C4)ccc3C2=O)C(=O)N1` (stereo not shown) [Example 248, 3-(5-(2-(4-fluorophenyl)-6-azaspiro[3.4]octane-6-carbonyl)-1-oxoisoindolin-2-yl)piperidine-2,6-dione], in assay [2], the IC50 was in the range of 10 to 100 nM.

Turning to `O=C1CCC(N2Cc3cc(C(=O)N4CCC5(C=C(c6cccc(F)c6)C5)C4)ccc3C2=O)C(=O)N1` (stereo not shown) [Example 249, 3-(5-(2-(3-fluorophenyl)-6-azaspiro[3.4]oct-1-ene-6-carbonyl)-1-oxoisoindolin-2-yl)piperidine-2,6-dione], the IC50 in assay [2] lay within 10 to 100 nM.

For `O=C1CCC(N2Cc3cc(C(=O)N4CCC5(CC(c6cccc(F)c6)C5)C4)ccc3C2=O)C(=O)N1` (stereo not shown) [Example 250, 3-(5-(2-(3-fluorophenyl)-6-azaspiro[3.4]octane-6-carbonyl)-1-oxoisoindolin-2-yl)piperidine-2,6-dione], the IC50 in assay [2] was in the range of 100 to 1000 nM.

For `O=C1CCC(N2Cc3cc(C(=O)N4CC5(CCC(C(F)(F)F)CC5)C4)ccc3C2=O)C(=O)N1` (stereo not shown) [Example 251, 3-(1-oxo-5-(7-(trifluoromethyl)-2-azaspiro[3.5]nonane-2-carbonyl)isoindolin-2-yl)piperidine-2,6-dione], the IC50 in assay [2] fell in the range of 100 to 1000 nM.

As to `O=C1CCC(c2nc3ccc(C(=O)N4CC5(CCC(C(F)(F)F)C5)C4)cc3o2)C(=O)N1` (stereo not shown) [Example 252, 3-(6-(6-(trifluoromethyl)-2-azaspiro[3.4]octane-2-carbonyl)benzo[d]oxazol-2-yl)piperidine-2,6-dione], the IC50 in assay [2] was above 1000 nM.

`O=C1CCC(c2nc3cc(COC(=O)NC4CC5(C4)CC(F)(F)C5)ccc3o2)C(=O)N1` (stereo not shown) [Example 253, (2-(2,6-dioxopiperidin-3-yl)benzo[d]oxazol-5-yl)methyl (6,6-difluorospiro[3.3]heptan-2-yl)carbamate]: in assay [2], the IC50 is above 1000 nM.

In the case of `O=C1CCC(N2Cc3cc(C(=O)NC4CC5(C=C(c6ccc(C(F)(F)F)cc6)C5)C4)ccc3C2=O)C(=O)N1` (stereo not shown) [Example 256, 2-(2,6-dioxopiperidin-3-yl)-1-oxo-N-(6-(4-(trifluoromethyl)phenyl)spiro[3.3]hept-5-en-2-yl)isoindoline-5-carboxamide], the IC50 in assay [2] is 100 to 1000 nM.

As to `O=C1CCC(c2nc3ccc(C(=O)N4CC5(CCC(C(F)(F)F)CC5)C4)cc3o2)C(=O)N1` (stereo not shown) [Example 259, 3-(6-(7-(trifluoromethyl)-2-azaspiro[3.5]nonane-2-carbonyl)benzo[d]oxazol-2-yl)piperidine-2,6-dione], the IC50 in assay [2] is above 1000 nM.

As for `O=C1CCC(c2nc3cc(COC(=O)NC4CC5(CCC(F)(F)CC5)C4)ccc3o2)C(=O)N1` (stereo not shown) [Example 260, (2-(2,6-dioxopiperidin-3-yl)benzo[d]oxazol-5-yl)methyl (7,7-difluorospiro[3.5]nonan-2-yl)carbamate], the IC50 in assay [2] was in the range of 100 to 1000 nM.

As for `O=C1CCC(c2nc3cc(COC(=O)N4CC5(C4)CC(F)(F)C5)ccc3o2)C(=O)N1` (stereo not shown) [Example 262, (2-(2,6-dioxopiperidin-3-yl)benzo[d]oxazol-5-yl)methyl 6,6-difluoro-2-azaspiro[3.3]heptane-2-carboxylate], the IC50 in assay [2] was above 1000 nM.
